{
  "source": "ChEMBL document CHEMBL1126103",
  "about": "“3'-C-branched 2'-deoxy-5-methyluridines: synthesis, enzyme inhibition, and antiviral properties” (J Med Chem, 1992)",
  "key": {"MT4 [1]": {"tested_on": "MT4", "assay": "Effective concentration required to inhibit HIV-1-induced cytopathicity in MT-4 cells", "assay_type": "functional, cell-based", "conditions": "Homo sapiens"}, "MT4 [2]": {"tested_on": "MT4", "assay": "Cytotoxic concentration required to reduce MT-4 cells viability by 50%", "assay_type": "functional", "conditions": "Homo sapiens"}},
  "data": [
    {"smiles": "Cc1cn([C@H]2C[C@@](C)(O)[C@@H](CO)O2)c(=O)[nH]c1=O", "values": [
      {"measurement": "EC50", "setting": "MT4 [1]", "value": "> 500", "unit": "µM"},
      {"measurement": "CC50", "setting": "MT4 [2]", "value": "> 500", "unit": "µM"}
    ]},
    {"smiles": "Cc1cn([C@H]2C[C@](C)(O)[C@@H](COP(=O)(O)O)O2)c(=O)[nH]c1=O", "values": [
      {"measurement": "EC50", "setting": "MT4 [1]", "value": 72, "unit": "µM"},
      {"measurement": "CC50", "setting": "MT4 [2]", "value": "> 500", "unit": "µM"}
    ]},
    {"smiles": "Cc1cn([C@H]2C[C@@](C)(O)[C@@H](COP(=O)(O)O)O2)c(=O)[nH]c1=O", "values": [
      {"measurement": "EC50", "setting": "MT4 [1]", "value": 243, "unit": "µM"},
      {"measurement": "CC50", "setting": "MT4 [2]", "value": "> 500", "unit": "µM"}
    ]},
    {"smiles": "Cc1cn([C@H]2C[C@](C)(O)[C@@H](CO)O2)c(=O)[nH]c1=O", "values": [
      {"measurement": "EC50", "setting": "MT4 [1]", "value": "> 500", "unit": "µM"},
      {"measurement": "CC50", "setting": "MT4 [2]", "value": "> 500", "unit": "µM"}
    ]}
  ]
}
